# Source: article PMC8234143, “Synthesis and Antiviral Evaluation of Nucleoside Analogues Bearing One Pyrimidine Moiety and Two D-Ribofuranosyl Residues” (Molecules, 2021)
# “Also recorded” adds a separate entry of the source. Like-named read-outs stand apart in the source and are kept apart here.
# Assays:
# [1] = tested on: A/Puerto Rico/8/34 (H1N1) influenza virus; design: method as in PMID 32930935; details: cited from earlier work; for IC50: 50% inhibition of virus replication, MDCK cells, earlier published compounds; for SI: CC50/IC50 ratio, influenza H1N1 / MDCK; for antiviral activity against influenza virus A H1N1 (in words): monosubstituted analogues
# Coxsackie B3 virus [2] = tested on: Coxsackie B3 virus; design: method as in PMID 32930935; details: cited from earlier work; for IC50: 50% inhibition of virus replication, Vero cells; for SI: CC50/IC50 ratio, Coxsackie B3 / Vero
# MDCK cells = details: earlier published compounds; cited from earlier work
# [3] = tested on: A/Puerto Rico/8/34 (H1N1) influenza virus; assay: Antiviral (cytoprotection, MTT) assay against influenza virus in MDCK cells; assay type: cell-based; details: for SI: CC50/IC50 ratio, influenza H1N1 / MDCK; for IC50: 48 h
# in vitro [4] = details: dog
# Coxsackie B3 virus [5] = assay: Antiviral (cytoprotection, MTT) assay against Coxsackie B3 virus in Vero cells; assay type: cell-based, coxsackievirus B3; details: for SI: CC50/IC50 ratio, Coxsackie B3 / Vero; for IC50: Enterovirus B, B3, Vero, 48 h, 50% inhibition of virus replication, Vero cells
# in vitro [6] = details: African green monkey, CC50, Vero cells, MTT; concentration causing 50% cell death
# Vero cells = details: cited from earlier work
# [7] = 50% inhibition of virus replication, MDCK cells, read-out: IC50
# [8] = Influenza A virus, H1N1, MDCK, 50% inhibition of virus replication, MDCK cells, read-out: IC50
structure (smiles),measurement,setting,value
O=c1[nH]c(=O)n(CCCCc2cn([C@@H]3O[C@H](CO)[C@@H](O)[C@H]3O)nn2)c2ccccc12 [Compound 4m],IC50,[1],30 ± 4 µM
same,SI,[1],24
same,IC50,Coxsackie B3 virus [2],> 79 µM
same,SI,Coxsackie B3 virus [2],"1 ^4,3"
same,CC50,MDCK cells,> 719 µM
"CC(N)C12CC3CC(CC(C3)C1)C2 (stereo not shown) [Rimantadine, reference compound]",SI,[3],4
same,IC50,"[3]; Influenza A virus, H1N1, MDCK",77 ± 8 µM
same,CC50,in vitro [4],340 ± 16 µM
O=c1c2ccccc2n(Cc2cn(C3OC(CO)C(O)C3O)nn2)c(=O)n1Cc1cn(C2OC(CO)C(O)C2O)nn1 (stereo not shown) [Compound 4g],IC50,[3]; [7],180 ± 19.9 µM
same,SI,[3],3
same,IC50,[3]; [8],> 100 µM
same,SI,Coxsackie B3 virus [5],2
same,IC50,Coxsackie B3 virus [5],> 170 µM
same,CC50,in vitro [4],> 510 µM
same,CC50,in vitro [6],381 ± 26.1 µM
Cc1cc(=O)[nH]c(=O)n1Cc1cn([C@@H]2O[C@H](CO)[C@@H](O)[C@H]2O)nn1 [Compound 2j],IC50,[1],> 885 µM
same,SI,[1],1
same,antiviral activity against influenza virus A H1N1 (in words),[1],did not demonstrate antiviral activity
same,IC50,Coxsackie B3 virus [2],> 1180 µM
same,SI,Coxsackie B3 virus [2],1 ^4
same,CC50,MDCK cells,> 885 µM
same,CC50,Vero cells,> 1180 µM
Cc1[nH]c(=O)[nH]c(=O)c1CCCCc1cn([C@@H]2O[C@H](CO)[C@@H](O)[C@H]2O)nn1 [Compound 11j],IC50,[1],> 787 µM
same,SI,[1],1
same,antiviral activity against influenza virus A H1N1 (in words),[1],did not demonstrate antiviral activity
same,CC50,MDCK cells,> 787 µM
Cc1cc(=O)n(Cc2cn(C3OC(CO)C(O)C3O)nn2)c(=O)n1Cc1cn(C2OC(CO)C(O)C2O)nn1 (stereo not shown) [Compound 2g],SI,[3],1
same,IC50,"[3]; Influenza A virus, H1N1, MDCK",> 543 µM
same,IC50,[3]; [8],> 100 µM
same,antiviral activity against influenza virus A H1N1 (in words),[3]; MDCK cells,did not demonstrate antiviral activity
same,SI,Coxsackie B3 virus [5],1
same,IC50,Coxsackie B3 virus [5],> 543 µM
same,CC50,in vitro [4],> 543 µM
same,CC50,in vitro [6],> 543 µM
O=c1[nH]c(=O)n(CCCc2cn([C@@H]3O[C@H](CO)[C@@H](O)[C@H]3O)nn2)c2ccccc12 [Compound 4k],IC50,[1],212 ± 25 µM
same,SI,[1],4 ^4
same,antiviral activity against influenza virus A H1N1 (in words),[1],did not demonstrate antiviral activity
same,IC50,Coxsackie B3 virus [2],> 82 µM
same,SI,Coxsackie B3 virus [2],"1 ^4,3"
same,CC50,MDCK cells,> 744 µM
same,CC50,Vero cells,101 ± 8 µM
CC(=O)OCC1OC(n2cc(CCCCn3c(=O)c4ccccc4n(CCCCc4cn(C5OC(COC(C)=O)C(OC(C)=O)C5OC(C)=O)nn4)c3=O)nn2)C(OC(C)=O)C1OC(C)=O (stereo not shown) [Compound 4f],SI,[3],3
same,IC50,[3]; [8],104 ± 15.1 µM
same,antiviral activity against influenza virus A H1N1 (in words),[3]; MDCK cells,inactive
same,CC50,in vitro [4],> 324 µM
CC(=O)OCC1OC(n2cc(CCCCc3c(C)[nH]c(=O)n(CCCCc4cn(C5OC(COC(C)=O)C(OC(C)=O)C5OC(C)=O)nn4)c3=O)nn2)C(OC(C)=O)C1OC(C)=O (stereo not shown) [Compound 11d],SI,[3],3
same,IC50,[3]; [8],119 ± 8.7 µM
same,antiviral activity against influenza virus A H1N1 (in words),[3]; MDCK cells,did not demonstrate antiviral activity; also recorded: inactive
same,CC50,in vitro [4],> 338 µM
Cc1[nH]c(=O)[nH]c(=O)c1CCCc1cn([C@@H]2O[C@H](CO)[C@@H](O)[C@H]2O)nn1 [Compound 11g],IC50,[1],67 ± 8 µM
same,SI,[1],2 ^4
same,SI,Coxsackie B3 virus [2],4 ^4
same,CC50,MDCK cells,104 ± 8 µM
same,CC50,Vero cells,140 ± 10 µM
CC(=O)OC[C@H]1O[C@@H](n2cc(CCCCc3c(C)[nH]c(=O)[nH]c3=O)nn2)[C@H](OC(C)=O)[C@@H]1OC(C)=O [Compound 11i],IC50,[1],> 592 µM
same,SI,[1],1 ^4
same,antiviral activity against influenza virus A H1N1 (in words),[1],did not demonstrate antiviral activity
same,CC50,MDCK cells,> 592 µM
O=c1c2ccccc2n(CCCCc2cn(C3OC(CO)C(O)C3O)nn2)c(=O)n1CCCCc1cn(C2OC(CO)C(O)C2O)nn1 (stereo not shown) [Compound 4i],IC50,[3]; [7],297 ± 32.4 µM
same,SI,[3],2
same,IC50,[3]; [8],297 µM
same,SI,Coxsackie B3 virus [5],1
same,IC50,Coxsackie B3 virus [5],> 446 µM
same,CC50,in vitro [4],> 446 µM
same,CC50,in vitro [6],> 446 µM
O=c1c2nc3ccccc3nc2n(Cc2cn(C3OC(CO)C(O)C3O)nn2)c(=O)n1Cc1cn(C2OC(CO)C(O)C2O)nn1 (stereo not shown) [Compound 5g],IC50,[3]; [7],187 ± 20.8 µM
same,SI,[3],3
same,IC50,[3]; [8],> 100 µM
same,SI,Coxsackie B3 virus [5],1
same,IC50,Coxsackie B3 virus [5],> 468 µM
same,CC50,in vitro [4],> 468 µM
same,CC50,in vitro [6],> 468 µM
Cc1[nH]c(=O)n(CCCCc2cn(C3OC(CO)C(O)C3O)nn2)c(=O)c1CCCCc1cn(C2OC(CO)C(O)C2O)nn1 (stereo not shown) [Compound 11f],SI,[3],1
same,IC50,"[3]; Influenza A virus, H1N1, MDCK",> 471 µM
same,antiviral activity against influenza virus A H1N1 (in words),[3]; MDCK cells,did not demonstrate antiviral activity
same,SI,Coxsackie B3 virus [5],1
same,IC50,Coxsackie B3 virus [5],> 471 µM
same,CC50,in vitro [4],> 471 µM
same,CC50,in vitro [6],> 471 µM
Cc1[nH]c(=O)[nH]c(=O)c1CCCCc1cn([C@@H]2O[C@H](CO)[C@@H](O)[C@H]2O)nn1 [Compound 11h],IC50,[1],15 ± 3 µM
same,SI,[1],5
same,IC50,Coxsackie B3 virus [2],> 263 µM
same,SI,Coxsackie B3 virus [2],2 ^4
same,CC50,MDCK cells,79 ± 6 µM
same,CC50,Vero cells,525 ± 31 µM
"CCC(CC)O[C@@H]1C=C(C(=O)O)C[C@H](N)[C@H]1NC(C)=O [Oseltamivir carboxylate, reference compound]",SI,[3],>667
same,IC50,"[3]; Influenza A virus, H1N1, MDCK",0.3 ± 0.06 µM
same,CC50,in vitro [4],> 200 µM
Cc1cc(=O)n(CCCc2cn(C3OC(CO)C(O)C3O)nn2)c(=O)n1CCCc1cn(C2OC(CO)C(O)C2O)nn1 (stereo not shown) [Compound 2h],SI,[3],1
same,IC50,"[3]; Influenza A virus, H1N1, MDCK",> 493 µM
same,IC50,[3]; [8],> 100 µM
same,SI,Coxsackie B3 virus [5],1
same,IC50,Coxsackie B3 virus [5],> 493 µM
same,CC50,in vitro [4],> 493 µM
same,CC50,in vitro [6],> 493 µM
O=c1[nH]c(=O)n(Cc2cn([C@@H]3O[C@H](CO)[C@@H](O)[C@H]3O)nn2)c2ccccc12 [Compound 4j],IC50,[1],42 ± 5 µM
same,SI,[1],3
same,IC50,Coxsackie B3 virus [2],133 ± 15 µM
same,SI,Coxsackie B3 virus [2],1 ^4
Cc1cc(=O)[nH]c(=O)n1CCCc1cn([C@@H]2O[C@H](CO)[C@@H](O)[C@H]2O)nn1 [Compound 2k],IC50,[1],43 ± 5 µM
same,SI,[1],6 ^4
same,IC50,Coxsackie B3 virus [2],> 1090 µM
same,SI,Coxsackie B3 virus [2],"1 ^4,3"
same,CC50,Vero cells,> 1090 µM
Cc1[nH]c(=O)n(CCCc2cn(C3OC(CO)C(O)C3O)nn2)c(=O)c1CCCc1cn(C2OC(CO)C(O)C2O)nn1 (stereo not shown) [Compound 11e],SI,[3],3
same,IC50,[3]; [8],164 ± 19.2 µM
same,antiviral activity against influenza virus A H1N1 (in words),[3]; MDCK cells,completely inactive
same,SI,Coxsackie B3 virus [5],2
same,IC50,Coxsackie B3 virus [5],> 164 µM
same,CC50,in vitro [4],> 493 µM
same,CC50,in vitro [6],394 ± 21.1 µM
"Cc1cc(CCCOc2c(C)cc(-c3noc(C(F)(F)F)n3)cc2C)on1 [Pleconaril, reference compound]",SI,Coxsackie B3 virus [5],46
same,IC50,Coxsackie B3 virus [5],21.6 µM
same,CC50,in vitro [6],> 1000 µM
O=c1c2ccccc2n(CCCc2cn(C3OC(CO)C(O)C3O)nn2)c(=O)n1CCCc1cn(C2OC(CO)C(O)C2O)nn1 (stereo not shown) [Compound 4h],IC50,[3]; [7],186 ± 21.6 µM
same,SI,[3],3
same,IC50,[3]; [8],> 100 µM
same,antiviral activity against influenza virus A H1N1 (in words),[3]; MDCK cells,did not demonstrate antiviral activity
same,SI,Coxsackie B3 virus [5],1
same,IC50,Coxsackie B3 virus [5],> 465 µM
same,CC50,in vitro [4],> 465 µM
same,CC50,in vitro [6],> 465 µM
Cc1cc(=O)[nH]c(=O)n1CCCCc1cn([C@@H]2O[C@H](CO)[C@@H](O)[C@H]2O)nn1 [Compound 2m],IC50,[1],48 ± 6 µM
same,SI,[1],6 ^4
same,IC50,Coxsackie B3 virus [2],106 ± 11 µM
same,SI,Coxsackie B3 virus [2],"6 ^4,3"
O=c1c2nc3ccccc3nc2n(CCCc2cn(C3OC(CO)C(O)C3O)nn2)c(=O)n1CCCc1cn(C2OC(CO)C(O)C2O)nn1 (stereo not shown) [Compound 5h],IC50,[3]; [7],115 ± 15.2 µM
same,SI,[3],4
same,IC50,[3]; [8],> 100 µM
same,SI,Coxsackie B3 virus [5],1
same,IC50,Coxsackie B3 virus [5],> 431 µM
same,CC50,in vitro [4],> 431 µM
same,CC50,in vitro [6],> 431 µM
CC(=O)OCC1OC(n2cc(CCCc3c(C)[nH]c(=O)n(CCCc4cn(C5OC(COC(C)=O)C(OC(C)=O)C5OC(C)=O)nn4)c3=O)nn2)C(OC(C)=O)C1OC(C)=O (stereo not shown) [Compound 11c],SI,[3],12
same,IC50,[3]; [8],29.2 ± 4.3 µM
same,CC50,in vitro [4],> 349 µM
